Where “and” joins values, the source holds several entries; their conditions need not be identical. Equal entries are not always repeated. Where two headings read alike, the source gives them in different places.
Tests used:
housefly adults = type: in vivo
[1] = in words, background; cited from earlier work
house fly adults = experiment: Oil spray test, Campbell's turn table method (Test Examples 1 and 2); conditions: Musca domestica, topical, 24 h, read-out: killing ratio
[2] = insecticide alone, no synergist
[3] = insecticide alone, no synergist (reference 1.0)
[4] = 3,4-dimethylphenyl-N-methylcarbamate + synergist, relative to insecticide alone
[5] = 3,4-dimethylphenyl-N-methylcarbamate + synergist, three batches
[6] = allethrin + 5 times weight of synergist, relative to allethrin alone
[7] = allethrin + 5 times weight of synergist, three batches
[8] = natural pyrethrin + 5 times weight of synergist, relative to natural pyrethrin alone
[9] = natural pyrethrin + 5 times weight of synergist, three batches
[10] = present compound alone, no insecticide
[11] = tetramethrin + 5 times weight of synergist, relative to tetramethrin alone of same batch
[12] = tetramethrin + 5 times weight of synergist, three batches (tetramethrin alone 0.530, 0.520, 0.570)

For `CNC(=O)Oc1ccc(C)c(C)c1` [3,4-Dimethylphenyl-N-methylcarbamate, 3,4-dimethylphenyl-N-methylcarbamate, reference compound], which LD50 (housefly adults; [2]) is on record?
The LD50 was ≥ 5 γ/Fly.

And the “Ratio of enhancing the killing effect” value (housefly adults; [3])?
Its value is 1.0.

With `C=CCC1=C(C)C(OC(=O)C2C(C=C(C)C)C2(C)C)CC1=O` (stereo not shown) [Allethrin, reference compound] as the compound, how does the LD50 (housefly adults; [2]) read?
The LD50 was 0.560 γ/Fly and 0.60 γ/Fly and 0.610 γ/Fly.

What about the “Ratio of enhancing the killing effect” value (housefly adults; [3]) of the same compound?
The value was 1.0.

For `CNC(=O)Oc1cccc2ccccc12` [Carbaryl, reference compound], which “Ratio of enhancing the killing effect” value (housefly adults; [3]) is on record?
The value was 1.0.

For `CC(C)=CC1C(C(=O)OCc2coc(Cc3ccccc3)c2)C1(C)C` (stereo not shown) [Chrysron, 5-benzyl-3-furylmethyl chrysanthemate, reference compound], which LD50 (housefly adults; in vivo) is on record?
The LD50 was 0.026 γ/Fly and 0.024 γ/Fly and 0.027 γ/Fly.

What about the “Ratio of enhancing the killing effect” value (housefly adults; [3]) of the same compound?
The value was 1.0.

For `CCCCC(CC)CN1C(=O)C2C3C=CC(C3)C2C1=O` (stereo not shown) [MGK-264, N-(2-ethylhexyl)bicyclo[2,2,1]-hept-5-ene-anhydro-phthalic acid-2,3-dicarboxyimide], which “synergistic effect on allethrin compared with natural pyrethrin” value [1] is on record?
Its value is “more excellent synergistic effect on allethrin than that on natural pyrethrin”.

What does the source list for `CCCCOCCOCCOCc1cc2c(cc1CCC)OCO2` [Piperonyl butoxide, α-[2-(butoxyethoxy)-ethoxy]-4,5-methylene-dioxy-2-propyltoluene]?
synergistic effect on allethrin and other synthetic pyrethroids [1]: somewhat inferior; synergistic effect on natural pyrethrin [1]: prominent synergistic effect

With `C#CCOC(=O)C(CCC)(OC)c1ccccc1` (stereo not drawn) [Present compound (1), Propargyl α-(n-propyl)-α-methoxyphenylacetate] as the compound, how does the “Ratio of enhancing the killing effect” value (housefly adults; [4]) read?
Its value is no less than 18.

What about the LD50 (housefly adults; [5]) of the same compound?
Its LD50 is 0.278 γ/Fly.

And the “Ratio of enhancing the killing effect” value (housefly adults; [6])?
Its value is 6.6.

What about the LD50 (housefly adults; [7]) of the same compound?
Its LD50 is 0.085 γ/Fly.

And the “Ratio of enhancing the killing effect” value (housefly adults; [8])?
Its value is 4.9.

What about the LD50 (housefly adults; [9]) of the same compound?
The LD50 was 0.082 γ/Fly.

What about the LD50 (housefly adults; [10]) of the same compound?
The LD50 was ≥ 2 γ/Fly.

What about the “Ratio of enhancing the killing effect” value (housefly adults; [11]) of the same compound?
Its value is 7.8.

What about the LD50 (housefly adults; [12]) of the same compound?
Its LD50 is 0.068 γ/Fly.

With `C#CCOC(=O)C(OC)(c1ccccc1)C(C)C` (stereo not drawn) [Present compound (2), Propargyl α-(iso-propyl)-α-methoxyphenylacetate] as the compound, how does the LD50 (housefly adults; [10]) read?
The LD50 was ≥ 2 γ/Fly.

What about the “Ratio of enhancing the killing effect” value (housefly adults; [11]) of the same compound?
The value was 8.7.

What about the LD50 (housefly adults; [12]) of the same compound?
Its LD50 is 0.061 γ/Fly.

For `C#CCOC(=O)C(CC=C)(OC)c1ccccc1` (stereo not drawn) [Present compound (3), Propargyl α-allyl-α-methoxyphenylacetate], which “Ratio of enhancing the killing effect” value (housefly adults; [4]) is on record?
Its value is no less than 18.

And the LD50 (housefly adults; [5])?
The LD50 was 0.273 γ/Fly.

What about the “Ratio of enhancing the killing effect” value (housefly adults; [6]) of the same compound?
Its value is 7.4.

And the LD50 (housefly adults; [7])?
The LD50 was 0.076 γ/Fly.

What about the “Ratio of enhancing the killing effect” value (housefly adults; [8]) of the same compound?
Its value is 5.1.

What about the LD50 (housefly adults; [9]) of the same compound?
The LD50 was 0.079 γ/Fly.

And the “Ratio of enhancing the killing effect” value (housefly adults; [11])?
The value was 8.3.

What about the LD50 (housefly adults; [12]) of the same compound?
Its LD50 is 0.064 γ/Fly.

Which results are given for `C#CCOC(=O)C(CCC=C)(OC)c1ccccc1` (stereo not drawn) [Present compound (4), Propargyl α-butenyl-α-methoxyphenylacetate]?
Ratio of enhancing the killing effect (housefly adults; [11]): 7.5; LD50 (housefly adults; [12]): 0.071 γ/Fly

Which “Ratio of enhancing the killing effect” value (housefly adults; [4]) does the source give for `C#CCOC(=O)C(CC=C)(OCC)c1ccccc1` (stereo not drawn) [Present compound (5), Propargyl α-allyl-α-ethoxyphenylacetate] here?
Its value is no less than 21.

And the LD50 (housefly adults; [5])?
Its LD50 is 0.238 γ/Fly.

What about the “Ratio of enhancing the killing effect” value (housefly adults; [6]) of the same compound?
Its value is 9.8.

And the LD50 (housefly adults; [7])?
Its LD50 is 0.057 γ/Fly.

And the “Ratio of enhancing the killing effect” value (housefly adults; [8])?
The value was 5.6.

What about the LD50 (housefly adults; [9]) of the same compound?
The LD50 was 0.071 γ/Fly.

And the “Ratio of enhancing the killing effect” value (housefly adults; [11])?
Its value is 12.5.

And the LD50 (housefly adults; [12])?
The LD50 was 0.042 γ/Fly.

With `C#CCOC(=O)C(CC(C)C)(OC)c1ccccc1` (stereo not drawn) [Present compound (6), Propargyl α-(iso-butyl)-α-methoxyphenylacetate] as the compound, how does the “Ratio of enhancing the killing effect” value (housefly adults; [11]) read?
Its value is 8.0.

What about the LD50 (housefly adults; [12]) of the same compound?
Its LD50 is 0.066 γ/Fly.

With `C#CCOC(=O)C(CC=C)(OCCC)c1ccccc1` (stereo not drawn) [Present compound (7), Propargyl α-allyl-α-(n-propyloxy)-phenylacetate] as the compound, how does the “Ratio of enhancing the killing effect” value (housefly adults; [11]) read?
The value was 7.9.

What about the LD50 (housefly adults; [12]) of the same compound?
The LD50 was 0.067 γ/Fly.

What does the source list for `C#CCOC(=O)C(CCCCCC)(OC)c1ccccc1` (stereo not drawn) [Present compound (8), Propargyl α-(n-hexyl)-α-methoxyphenylacetate]?
Ratio of enhancing the killing effect (housefly adults; [11]): 4.5; LD50 (housefly adults; [12]): 0.128 γ/Fly

For `C#CCOC(=O)C(OC)(c1ccccc1)C1CCCCC1` (stereo not drawn) [Present compound (9), Propargyl α-cyclohexyl-α-methoxyphenylacetate], which “Ratio of enhancing the killing effect” value (housefly adults; [11]) is on record?
The value was 4.8.

And the LD50 (housefly adults; [12])?
The LD50 was 0.111 γ/Fly.

What does the source list for `C#CCCOC(=O)C(CC=C)(OC)c1ccccc1` (stereo not shown) [Present compound (10)]?
LD50 (housefly adults; [10]): ≥ 2 γ/Fly; Ratio of enhancing the killing effect (housefly adults; [11]): 6.9; LD50 (housefly adults; [12]): 0.077 γ/Fly

What does the source list for `C#CCOC(=O)C(Cc1ccccc1)(OC)c1ccccc1` (stereo not drawn) [Present compound (11), Propargyl α-benzyl-α-methoxyphenylacetate]?
Ratio of enhancing the killing effect (housefly adults; [4]): ≥ 24; LD50 (housefly adults; [5]): 0.21 γ/Fly; Ratio of enhancing the killing effect (housefly adults; [6]): 10.0; LD50 (housefly adults; [7]): 0.060 γ/Fly; Ratio of enhancing the killing effect (housefly adults; [8]): 6.5; LD50 (housefly adults; [9]): 0.054 γ/Fly; Ratio of enhancing the killing effect (housefly adults; [11]): 11.3; LD50 (housefly adults; [12]): 0.046 γ/Fly

Which results are given for `C#CCOC(=O)C(Cc1ccccc1)(OCC)c1ccccc1` (stereo not drawn) [Present compound (12), Propargyl α-benzyl-α-ethoxyphenylacetate]?
Ratio of enhancing the killing effect (housefly adults; [11]): 10.0; LD50 (housefly adults; [12]): 0.052 γ/Fly

What does the source list for `C=CCOC(=O)C(Cc1ccccc1)(OC)c1ccccc1` (stereo not drawn) [Present compound (13), Allyl α-benzyl-α-methoxyphenylacetate]?
Ratio of enhancing the killing effect (housefly adults; [11]): 10.4; LD50 (housefly adults; [12]): 0.050 γ/Fly

With `C#CCOC(=O)C(OC)(c1ccccc1)c1cccs1` (stereo not drawn) [Present compound (14), Propargyl α-(2-thienyl)-α-methoxyphenylacetate] as the compound, how does the “Ratio of enhancing the killing effect” value (housefly adults; [11]) read?
Its value is 8.1.

What about the LD50 (housefly adults; [12]) of the same compound?
The LD50 was 0.064 γ/Fly.

Which “Ratio of enhancing the killing effect” value (housefly adults; [11]) does the source give for `C#CCC(OC)(C(=O)OCC=C)c1ccccc1` (stereo not drawn) [Present compound (15), Allyl α-propargyl-α-methoxyphenylacetate] here?
Its value is 8.7.

And the LD50 (housefly adults; [12])?
The LD50 was 0.060 γ/Fly.

With `C#CCCOC(=O)C(OC)(c1ccccc1)c1ccccc1` [Present compound (16)] as the compound, how does the “Ratio of enhancing the killing effect” value (housefly adults; [4]) read?
Its value is no less than 20.

And the LD50 (housefly adults; [5])?
Its LD50 is 0.25 γ/Fly.

What about the “Ratio of enhancing the killing effect” value (housefly adults; [6]) of the same compound?
The value was 7.2.

What about the LD50 (housefly adults; [7]) of the same compound?
Its LD50 is 0.083 γ/Fly.

What about the “Ratio of enhancing the killing effect” value (housefly adults; [8]) of the same compound?
The value was 5.5.

And the LD50 (housefly adults; [9])?
Its LD50 is 0.064 γ/Fly.

And the “Ratio of enhancing the killing effect” value (housefly adults; [11])?
The value was 9.5.

What about the LD50 (housefly adults; [12]) of the same compound?
The LD50 was 0.055 γ/Fly.

For `C#CCCCCOC(=O)C(CCC)(OCC)c1ccccc1` (stereo not shown) [Present compound (17)], which “Ratio of enhancing the killing effect” value (housefly adults; [11]) is on record?
The value was 8.3.

And the LD50 (housefly adults; [12])?
Its LD50 is 0.063 γ/Fly.

For `C#CCCOC(=O)C(OCCC#C)(c1ccccc1)c1ccccc1` [Present compound (18)], which “Ratio of enhancing the killing effect” value (housefly adults; [11]) is on record?
The value was 11.1.

And the LD50 (housefly adults; [12])?
The LD50 was 0.047 γ/Fly.

For `C#CCOCC(CCC)(OC)c1ccccc1` (stereo not drawn) [Present compound (19), Propargyl α-(n-propyl)-α-methoxyphenethyl ether], which “Ratio of enhancing the killing effect” value (housefly adults; [11]) is on record?
The value was 8.5.

And the LD50 (housefly adults; [12])?
Its LD50 is 0.067 γ/Fly.

With `C#CCOCC(CC=C)(OC)c1ccccc1` (stereo not shown) [Present compound (20)] as the compound, how does the “Ratio of enhancing the killing effect” value (housefly adults; [4]) read?
Its value is no less than 19.

And the LD50 (housefly adults; [5])?
The LD50 was 0.252 γ/Fly.

And the “Ratio of enhancing the killing effect” value (housefly adults; [6])?
The value was 9.8.

And the LD50 (housefly adults; [7])?
Its LD50 is 0.062 γ/Fly.

What about the “Ratio of enhancing the killing effect” value (housefly adults; [8]) of the same compound?
Its value is 7.0.

What about the LD50 (housefly adults; [9]) of the same compound?
The LD50 was 0.056 γ/Fly.

What about the “Ratio of enhancing the killing effect” value (housefly adults; [11]) of the same compound?
Its value is 10.8.

And the LD50 (housefly adults; [12])?
The LD50 was 0.053 γ/Fly.

With `C#CCOCC(CC=C)(OCC)c1ccccc1` (stereo not drawn) [Present compound (21), Propargyl α-allyl-α-ethoxyphenethyl ether] as the compound, how does the “Ratio of enhancing the killing effect” value (housefly adults; [11]) read?
Its value is 9.5.

And the LD50 (housefly adults; [12])?
Its LD50 is 0.060 γ/Fly.

What does the source list for `C#CCOCC(CC(C)C)(OCC=C)c1ccccc1` (stereo not drawn) [Present compound (22), Propargyl α-(iso-butyl)-α-allyloxyphenethyl ether]?
Ratio of enhancing the killing effect (housefly adults; [11]): 10.2; LD50 (housefly adults; [12]): 0.056 γ/Fly

With `C#CCCOCC(CCC)(OC)c1ccccc1` (stereo not shown) [Present compound (26)] as the compound, how does the “Ratio of enhancing the killing effect” value (housefly adults; [11]) read?
Its value is 7.0.

And the LD50 (housefly adults; [12])?
The LD50 was 0.081 γ/Fly.

With `C#CCCCCOCC(CCC)(OC)c1ccccc1` (stereo not shown) [Present compound (27)] as the compound, how does the “Ratio of enhancing the killing effect” value (housefly adults; [11]) read?
The value was 7.0.

What about the LD50 (housefly adults; [12]) of the same compound?
Its LD50 is 0.081 γ/Fly.

What does the source list for `CC(C)=CC1C(C(=O)OCN2C(=O)C3=C(CCCC3)C2=O)C1(C)C` (stereo not shown) [Tetramethrin, N-chrysanthemoxymethyl-3,4,5,6-tetrahydrophthalimide, reference compound]?
LD50 (housefly adults; [2]): 0.530 γ/Fly and 0.520 γ/Fly and 0.570 γ/Fly; Ratio of enhancing the killing effect (housefly adults; [3]): 1.0; mortality at 0.05 % (house fly adults): 52%

Reference: patent US3970703A, “Phenylacetic acid derivatives” (Sumitomo Chemical Company, Limited, priority 1970, dated 1976)
